Assay results reported in patent US5679689A, “Quinolone- and naphthyridonecarboxylic acid derivatives” (Bayer Aktiengesellschaft, priority 1994, dated 1997).
≈ marks a conversion by molar mass, not a printed value.

What was measured:
E. coli Neumann = assay: Minimum inhibitory concentration (MIC), serial dilution on Iso-Sensitest Agar; assay type: cell-based; settings: Escherichia coli, 37° C., about 20 hours
Procedure: (§1) In the following Tables 9 and 10, the minimum inhibitory concentration are shown as a measure of the antibacterial activity and the ID50 values as a measure of the interactions with mammalian DNA of a substance both for compounds according to the invention and for reference compounds from the prior art (EP 520 240).
(§2) The minimum inhibitory concentration (MIC) were determined by a serial dilution method on Iso-Sensitest Agar (Oxoid). For each test substance, a number of agar plates were prepared which, with doubled dilution in each case, contained decreasing concentrations of the active compound. The agar plates were inoculated using a multipoint inoculator (Denley). For inoculation, overnight cultures of the pathogens were used which had previously been diluted such that each inoculation point contained about […] colony-forming particles. The inoculated agar plates were incubated at 37° C. and the microorganism growth was read off after about 20 hours. The MIC value (μg/ml) indicates the lowest active compound concentration at which no growth could be detected using the naked eye.

Staph. aureus ICB 25701 = assay: as above; assay type: cell-based; settings: Staphylococcus aureus, ICB25701, 37° C., about 20 hours
Procedure: as §1, §2

[1] = Inhibition of DNA synthesis in CHO-KI cells (interaction with mammalian DNA), fluorophotometric; assay type: cell-based, Chinese hamster; settings: hamster, cho-k1 cells; concentration at which DNA synthesis in CHO-KI cells is inhibited by 50%; read-out: ID50 (the source's name)
Source text: as §1
ID50 is understood as meaning the concentration of a substance at which the DNA synthesis in cells from ovaries of the Chinese hamster (CHO-KI) is inhibited by 50%. This value is determined over defined time intervals in decreasing dilution steps after incubation of the appropriate substances. To do this, the DNA synthesis in CHO-KI cells is determined in comparison to controls by means of fluorophotometric methods.

Staph. aureus 133 = assay: Minimum inhibitory concentration (MIC), serial dilution on Iso-Sensitest Agar; assay type: cell-based; settings: Staphylococcus aureus, 37° C., about 20 hours
Procedure: as §2

Ps. aeruginosa Walter = assay: as above; assay type: cell-based; settings: Pseudomonas aeruginosa, 37° C., about 20 hours
Procedure: as §2

Bac. fragilis ES 25 = assay: as above; assay type: cell-based; settings: Bacteroides fragilis, ES25, 37° C., about 20 hours
Procedure: as §2

Compound	MIC (E. coli Neumann)	MIC (Staph. aureus ICB 25701)	IC50 [1]	MIC (Staph. aureus 133)	MIC (Ps. aeruginosa Walter)	MIC (Bac. fragilis ES 25)
CC1C=CC(N)C2CN(c3c(F)cc4c(=O)c(C(=O)O)cn(C5CC5)c4c3Cl)CC12 (stereo not drawn) [Ref. 3, 7(4-Amino-7-methyl-1,3,3a,4,7,7a-hexahydro-isoindol-2-yl)-8-chloro-1-cycl propyl-6-fluoro-1,4-dihydro-4-oxo-3-quinolinecarboxylic acid, reference compound]	0.015 µg/mL (≈ 0.0347 µM)	0.015 µg/mL (≈ 0.0347 µM)	0.1 µg/mL (≈ 0.232 µM)	0.015 µg/mL (≈ 0.0347 µM)	0.5 µg/mL (≈ 1.16 µM)	0.125 µg/mL (≈ 0.289 µM)
NC12C=CC=CC1CN(c1c(F)cc3c(=O)c(C(=O)O)cn(C4CC4)c3c1F)C2 (stereo not drawn) [Example 2, 7-(3a-amino-1,2,3,7a-tetrahydroisoindol-2-yl)-1-cyclopropyl-6,8-difluoro-1,4-dihydro-4-oxo-3-quinolinecarboxylic acid]	≤ 0.015 µg/mL	2 µg/mL (≈ 5.01 µM)	32 µg/mL (≈ 80.1 µM)	0.06 µg/mL (≈ 0.15 µM)	1 µg/mL (≈ 2.5 µM)	1 µg/mL (≈ 2.5 µM)
NC12C=CC=CC1CN(c1nc3c(cc1F)c(=O)c(C(=O)O)cn3C1CC1)C2 (stereo not drawn) [Example 9, 7-(3a-amino-1,2,3,7a-tetrahydro-isoindol-2-yl)-1-cyclopropyl-6-fluoro-1,4-dihydro-4-oxo-1,8-naphthyridine-3-carboxylic acid]	≤ 0.015 µg/mL	8 µg/mL (≈ 20.9 µM)	32 µg/mL (≈ 83.7 µM)	0.06 µg/mL (≈ 0.157 µM)	1 µg/mL (≈ 2.62 µM)	4 µg/mL (≈ 10.5 µM)
COc1c(N2CC3C(C)C=CC(N)C3C2)c(F)cc2c(=O)c(C(=O)O)cn(C3CC3)c12 (stereo not drawn) [Ref. 2, 7(4-Amino-7-methyl-1,3,3a,4,7,7a-hexahydro-isoindol-2-yl)-1-cyclopropyl-6 fluoro-1,4-dihydro-8-methoxy-4-oxo-3-quinolinecarboxylic acid, reference compound]	0.015 µg/mL (≈ 0.0351 µM)	0.015 µg/mL (≈ 0.0351 µM)	0.1 µg/mL (≈ 0.234 µM)	0.015 µg/mL (≈ 0.0351 µM)	1 µg/mL (≈ 2.34 µM)	0.25 µg/mL (≈ 0.585 µM)

Now from value to compound:

MIC (E. coli Neumann)	MIC (Staph. aureus ICB 25701)	IC50 [1]	MIC (Staph. aureus 133)	MIC (Ps. aeruginosa Walter)	MIC (Bac. fragilis ES 25)	Compound
≤ 0.015 µg/mL	0.25 µg/mL (≈ 0.601 µM)	32 µg/mL (≈ 77 µM)	≤ 0.015 µg/mL	0.5 µg/mL (≈ 1.2 µM)	0.125 µg/mL (≈ 0.301 µM)	NC12C=CC=CC1CN(c1c(F)cc3c(=O)c(C(=O)O)cn(C4CC4)c3c1Cl)C2 (stereo not drawn) [Example 3, 7-(3a-amino-1,2,3,7a-tetrahydro-isoindol-2-yl)-8-chloro-1-cyclopropyl-6-fluoro-1,4-dihydro-4-oxo-3-quinolineearboxylic acid]
≤ 0.015 µg/mL	0.5 µg/mL (≈ 1.22 µM)	> 64 µg/mL	≤ 0.015 µg/mL	0.5 µg/mL (≈ 1.22 µM)	2 µg/mL (≈ 4.86 µM)	COc1c(N2CC3C=CC=CC3(N)C2)c(F)cc2c(=O)c(C(=O)O)cn(C3CC3)c12 (stereo not drawn) [Example 4, 7-(3a-amino-1,2,3,7a-tetrahydro-isoindolo2-yl)-1-cyclopropyl-6-fluoro-1,4-dihydro-8-methoxy-4-oxo-3-quinolinecarboxylic acid]
0.015 µg/mL (≈ 0.0361 µM)	0.06 µg/mL (≈ 0.144 µM)	0.015 µg/mL (≈ 0.0361 µM)	0.015 µg/mL (≈ 0.0361 µM)	0.5 µg/mL (≈ 1.2 µM)	0.5 µg/mL (≈ 1.2 µM)	CC1C=CC(N)C2CN(c3c(F)cc4c(=O)c(C(=O)O)cn(C5CC5)c4c3F)CC12 (stereo not drawn) [Ref. 1, 7(4-Amino-7-methyl-1,3,3a,4,7,7a-hexahydro-isoindol-2-yl)-1-cyclopropyl-6 8-difluoro-1,4-dihydro-4-oxo-3-quinolinecarboxylic acid, reference compound]
≤ 0.015 µg/mL	0.5 µg/mL (≈ 1.2 µM)	16 µg/mL (≈ 38.3 µM)	0.03 µg/mL (≈ 0.0719 µM)	0.5 µg/mL (≈ 1.2 µM)	0.5 µg/mL (≈ 1.2 µM)	NC12C=CC=CC1CN(c1c(F)cc3c(=O)c(C(=O)O)cn([C@@H]4C[C@@H]4F)c3c1F)C2 (stereo partly drawn) [Example 8, 7-(3a-amino-1,2,3,7a-tetrahydro-isoindol-2-yl)-6,8-difluoro-1-(cis-2-fluorocydopropyl)-1,4-dihydro-4-oxo-3-quinolineearboxylic acid]
